Assay results reported in ChEMBL document CHEMBL1201862, “PubChem BioAssay data set” (2004).
Calls of active or inactive are those of the source.

Assays:
[1] = molecular target: T1, Corticotropin-releasing factor receptor 2/Corticotropin-releasing factor-binding protein (Homo sapiens, UniProt P24387+Q13324); test: activators of CRF receptor 2 with binding protein – uHTS hits, confirmation (AID 602473); assay type: functional; conditions: read-out: EC50_Mean
T1 sequence (Q13324 whole entry): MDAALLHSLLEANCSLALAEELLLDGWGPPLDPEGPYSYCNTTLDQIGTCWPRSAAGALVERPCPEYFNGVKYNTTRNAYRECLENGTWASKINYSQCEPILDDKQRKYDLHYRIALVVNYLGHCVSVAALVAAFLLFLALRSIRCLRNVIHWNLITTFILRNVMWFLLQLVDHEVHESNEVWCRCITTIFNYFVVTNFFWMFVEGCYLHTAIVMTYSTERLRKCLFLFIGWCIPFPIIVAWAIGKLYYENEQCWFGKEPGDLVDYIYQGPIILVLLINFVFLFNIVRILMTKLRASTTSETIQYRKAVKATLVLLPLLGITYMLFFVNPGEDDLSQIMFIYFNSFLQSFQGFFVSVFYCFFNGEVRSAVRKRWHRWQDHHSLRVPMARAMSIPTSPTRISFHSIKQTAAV
T1 sequence (P24387 whole entry): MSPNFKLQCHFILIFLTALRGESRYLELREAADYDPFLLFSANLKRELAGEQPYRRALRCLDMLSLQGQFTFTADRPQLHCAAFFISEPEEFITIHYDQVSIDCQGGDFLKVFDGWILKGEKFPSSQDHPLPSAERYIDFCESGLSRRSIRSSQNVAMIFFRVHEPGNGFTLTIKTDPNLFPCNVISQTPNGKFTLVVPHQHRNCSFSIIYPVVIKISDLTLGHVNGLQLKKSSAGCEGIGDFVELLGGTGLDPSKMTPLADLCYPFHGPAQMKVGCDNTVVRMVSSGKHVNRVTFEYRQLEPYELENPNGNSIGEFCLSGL

[2] = molecular target: T1, Corticotropin-releasing factor receptor 2/Corticotropin-releasing factor-binding protein; test: Dose Response confirmation of uHTS hits for small molecule antagonists of the CRF-binding protein and CRF-R2 receptor complex.; assay type: functional; conditions: read-out: IC50_Mean
Fatty acid synthase [3] = molecular target: T2, Fatty acid synthase (Homo sapiens, UniProt P49327); test: inhibition of human FAS-TE enzyme activity – biochemical, endpoint fluorescence intensity, uHTS hits, dose response (AID 624327); assay type: functional;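 note: fluorescence from hydrolysis of an O-methyl fluorescein acyl ester substrate by the enzyme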
Fatty acid synthase [4] = molecular target: T2, Fatty acid synthase; test: inhibition of human FAS-TE enzyme activity – biochemical, kinetic fluorescence intensity, dose response (AID 624326); assay type: functional;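 note: rate of fluorescence rise from hydrolysis of a fluorogenic O-methyl fluorescein ester substrate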
[5] = Trypanosoma cruzi growth suppression in host cells – NIH3T3 host cells, beta-gal luminescence, confirmation (AID 2044); assay type: functional, cell-based;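 note: intracellular parasites grown in NIH/3T3 mouse fibroblasts as host cells; luminescent beta-galactosidase reporter signal from transgenic T. cruzi replicating inside host cells; inhibitors lower the luminescence signal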
[6] = NIH3T3 cell viability loss – ATP luminescence, mouse fibroblasts, counter-screen, dose response (AID 2010); assay type: functional, cell-based;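 note: cells exposed to compound for about 90 hours before reading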
Cytochrome P450 3A4 = Cytochrome P450 3A4 (Homo sapiens, UniProt P08684);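 note: CYP3A4 tested as one member of a cytochrome P450 panel screen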
Sequence of Cytochrome P450 3A4 (P08684 whole entry): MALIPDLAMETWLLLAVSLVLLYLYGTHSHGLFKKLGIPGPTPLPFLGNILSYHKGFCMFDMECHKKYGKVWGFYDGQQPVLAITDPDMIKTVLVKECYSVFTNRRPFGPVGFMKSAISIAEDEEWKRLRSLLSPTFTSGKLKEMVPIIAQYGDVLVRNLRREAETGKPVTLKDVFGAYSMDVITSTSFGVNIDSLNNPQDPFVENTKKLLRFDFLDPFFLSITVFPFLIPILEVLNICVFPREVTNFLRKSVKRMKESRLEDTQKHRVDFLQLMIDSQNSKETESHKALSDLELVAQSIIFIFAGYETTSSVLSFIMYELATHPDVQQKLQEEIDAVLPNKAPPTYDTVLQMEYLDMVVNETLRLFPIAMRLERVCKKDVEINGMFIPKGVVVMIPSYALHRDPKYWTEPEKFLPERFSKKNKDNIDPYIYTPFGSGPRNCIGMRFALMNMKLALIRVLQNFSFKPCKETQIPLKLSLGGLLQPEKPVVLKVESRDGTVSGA

T2 sequence (P49327 whole entry): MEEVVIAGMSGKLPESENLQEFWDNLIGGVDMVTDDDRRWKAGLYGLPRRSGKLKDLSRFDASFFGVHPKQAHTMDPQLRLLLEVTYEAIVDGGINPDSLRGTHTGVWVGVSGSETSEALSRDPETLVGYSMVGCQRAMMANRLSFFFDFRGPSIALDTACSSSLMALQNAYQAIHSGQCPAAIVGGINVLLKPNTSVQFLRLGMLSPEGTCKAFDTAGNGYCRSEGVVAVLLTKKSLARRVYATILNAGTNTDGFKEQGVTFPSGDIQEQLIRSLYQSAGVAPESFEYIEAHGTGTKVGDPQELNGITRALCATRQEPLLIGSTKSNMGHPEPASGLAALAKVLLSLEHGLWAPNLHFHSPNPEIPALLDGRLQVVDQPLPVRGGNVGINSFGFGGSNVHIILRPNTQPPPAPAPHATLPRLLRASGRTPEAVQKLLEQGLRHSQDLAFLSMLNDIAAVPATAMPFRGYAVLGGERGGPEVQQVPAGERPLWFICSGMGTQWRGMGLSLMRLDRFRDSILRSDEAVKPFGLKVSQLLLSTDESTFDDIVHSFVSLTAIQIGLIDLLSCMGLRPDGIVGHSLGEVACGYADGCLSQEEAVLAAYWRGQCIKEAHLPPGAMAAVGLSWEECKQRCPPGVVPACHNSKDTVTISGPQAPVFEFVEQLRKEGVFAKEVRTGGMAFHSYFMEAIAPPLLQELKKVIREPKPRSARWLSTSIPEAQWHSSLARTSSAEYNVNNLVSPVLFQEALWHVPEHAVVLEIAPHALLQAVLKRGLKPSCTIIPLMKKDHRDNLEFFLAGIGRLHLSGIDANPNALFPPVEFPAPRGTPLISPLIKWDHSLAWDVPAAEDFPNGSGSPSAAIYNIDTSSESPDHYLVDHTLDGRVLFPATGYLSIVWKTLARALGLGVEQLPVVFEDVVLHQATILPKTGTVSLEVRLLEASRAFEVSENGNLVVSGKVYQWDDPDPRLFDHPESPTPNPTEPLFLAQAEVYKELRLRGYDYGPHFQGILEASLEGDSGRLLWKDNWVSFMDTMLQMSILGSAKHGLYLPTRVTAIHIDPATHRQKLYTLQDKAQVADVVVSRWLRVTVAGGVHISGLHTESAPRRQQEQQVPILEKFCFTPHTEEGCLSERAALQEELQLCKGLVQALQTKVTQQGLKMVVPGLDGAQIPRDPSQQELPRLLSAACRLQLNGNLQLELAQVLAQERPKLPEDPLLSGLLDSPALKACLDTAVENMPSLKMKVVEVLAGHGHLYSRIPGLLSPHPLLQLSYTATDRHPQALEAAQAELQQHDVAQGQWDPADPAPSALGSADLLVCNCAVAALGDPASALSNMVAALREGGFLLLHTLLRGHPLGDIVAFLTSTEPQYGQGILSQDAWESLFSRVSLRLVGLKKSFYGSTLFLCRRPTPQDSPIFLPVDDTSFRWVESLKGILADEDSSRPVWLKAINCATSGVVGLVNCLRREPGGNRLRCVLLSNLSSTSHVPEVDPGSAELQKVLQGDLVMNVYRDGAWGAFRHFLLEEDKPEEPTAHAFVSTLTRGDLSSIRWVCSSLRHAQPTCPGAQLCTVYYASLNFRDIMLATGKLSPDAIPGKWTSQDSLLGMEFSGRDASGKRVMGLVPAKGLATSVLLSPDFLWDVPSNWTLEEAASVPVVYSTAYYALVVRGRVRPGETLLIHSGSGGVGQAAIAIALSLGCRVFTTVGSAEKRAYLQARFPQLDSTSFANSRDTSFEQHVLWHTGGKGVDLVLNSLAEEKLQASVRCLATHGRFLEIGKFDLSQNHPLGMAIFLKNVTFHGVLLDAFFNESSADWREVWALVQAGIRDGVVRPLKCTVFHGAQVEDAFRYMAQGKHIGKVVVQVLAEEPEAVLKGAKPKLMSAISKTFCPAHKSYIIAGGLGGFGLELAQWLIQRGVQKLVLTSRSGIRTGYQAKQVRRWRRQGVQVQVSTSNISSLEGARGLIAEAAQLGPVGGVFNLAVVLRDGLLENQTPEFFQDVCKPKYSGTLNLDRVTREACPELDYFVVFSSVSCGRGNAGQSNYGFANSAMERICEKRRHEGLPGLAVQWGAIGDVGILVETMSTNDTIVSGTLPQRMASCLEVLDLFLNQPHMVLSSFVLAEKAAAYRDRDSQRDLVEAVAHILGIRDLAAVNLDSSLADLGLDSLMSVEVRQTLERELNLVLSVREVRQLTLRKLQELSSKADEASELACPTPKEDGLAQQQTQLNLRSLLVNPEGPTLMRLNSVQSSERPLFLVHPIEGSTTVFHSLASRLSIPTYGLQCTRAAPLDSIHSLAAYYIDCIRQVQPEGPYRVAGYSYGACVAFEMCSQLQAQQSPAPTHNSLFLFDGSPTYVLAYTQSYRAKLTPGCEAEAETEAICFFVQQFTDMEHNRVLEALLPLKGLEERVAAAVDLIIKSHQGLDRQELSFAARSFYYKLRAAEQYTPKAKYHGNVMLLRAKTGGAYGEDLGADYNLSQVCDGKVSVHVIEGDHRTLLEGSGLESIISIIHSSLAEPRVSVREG

Compound | EC50 [1] | IC50 [2] | IC50 (Fatty acid synthase [3]) | IC50 (Fatty acid synthase [4]) | further results
Cc1ccc(C(=O)N/N=C\c2ccccn2)cn1 | > 53 µM (inactive) | > 47.1 µM (inactive) |  |  | 
COc1ccccc1C(=O)COC(=O)c1c(-c2ccccc2)noc1C | > 53 µM (inactive) | > 47.1 µM (inactive) |  |  | 
CCCN(C(=O)c1cc(Cl)nc2ccccc12)C1CCS(=O)(=O)C1 (centres undefined) | > 53 µM (inactive) | > 47.1 µM (inactive) |  |  | 
O=C(COc1ccc(Cl)cc1Cl)Nc1ccccc1F | > 53 µM (inactive) | > 47.1 µM (inactive) |  |  | 
CC(C)(C)c1ccc(C(=O)CS(=O)(=O)c2ccccc2)cc1 | > 53 µM (inactive) | > 47.1 µM (inactive) |  |  | 
COc1ccc(CNC(=O)C2(c3ccc(Cl)cc3)CC2)cc1 | > 53 µM (inactive) | > 47.1 µM (inactive) |  |  | 
C[C@H](NC(=O)c1[nH]cnc1C(=O)N[C@@H](CCCCNC(=O)OC(C)(C)C)C(=O)OC(C)(C)C)C(=O)OCc1ccccc1 |  |  | 0.349 µM (active) | 0.176 µM (active) | 
COc1cccc(CN2CCC(Oc3ccc(C(=O)NCc4ccccn4)cc3)CC2)c1O | > 53 µM (inactive) | > 47.1 µM (inactive) |  |  | 
Cc1cc(C)c(C#N)c(SCC(=O)c2ccc(Cl)cc2Cl)n1 |  |  | 7.15 µM (active) | 4.77 µM (active) | EC50 [5]: 0.169 µM (active); EC50 [6]: > 60 µM (not active); AC50 (Cytochrome P450 3A4): 17.8 µM (inconclusive)
O=C(NCCN1C(=O)S/C(=C\c2ccccc2)C1=O)C1CCN(S(=O)(=O)c2cccs2)CC1 |  |  | 16.2 µM (active) | 18.1 µM (active) | 
CC1(C)Cc2ccccc2C(c2cc3ccccc3oc2=O)=N1 | > 53 µM (inactive) | > 47.1 µM (inactive) |  |  | 

Continued, in another order:

EC50 [1] | IC50 [2] | IC50 (Fatty acid synthase [3]) | IC50 (Fatty acid synthase [4]) | Compound | further results
 |  | 5 µM (active) | 6.41 µM (active) | COc1ccccc1NC(=O)COC(=O)c1cc([N+](=O)[O-])ccc1N1CCCC1 | 
> 53 µM (inactive) | > 47.1 µM (inactive) |  |  | CCN(CC(=O)Nc1ccc(NC(C)=O)cc1)C(=O)c1ccc(=O)n(C)n1 | 
 |  | 15.1 µM (active) | 12.3 µM (active) | COc1ccc(C(=O)Nc2cc([N+](=O)[O-])ccc2N2CCCC2)cc1 | 
 |  | 3.67 µM (active) | 2.4 µM (active) | O=C(CSc1nc2ccccc2n1S(=O)(=O)c1cccc([N+](=O)[O-])c1)NCCc1ccccc1 | 
 |  | 6.68 µM (active) | 7.99 µM (active) | CN(CC(=O)Nc1ccc(F)cc1)C(=O)COC(=O)c1cc([N+](=O)[O-])ccc1N1CCOCC1 | 
 |  | 9.02 µM (active) | 7.4 µM (active) | O=C(O)CC(NC(=O)C(c1ccccc1)c1ccccc1)c1cccc([N+](=O)[O-])c1 (centres undefined) | 
> 53 µM (inactive) | > 47.1 µM (inactive) |  |  | Cc1c(C(=O)Nc2c(F)cccc2F)sc2ncn(CC(=O)N3CCCCC3)c(=O)c12 | 
